In EP0727211A1, “Use of src SH2 specific compounds to treat a bone resorption disease” (SMITHKLINE BEECHAM CORPORATION, priority 1995, dated 1996):
Like-named read-outs stand apart in the source and are kept apart here.

Experiments:
human src SH2 domain [1] = target: human src SH2 domain (Homo sapiens, UniProt P12931); test: SH2 domain / pY peptide binding assay (ELISA-based, 96 well plate), src SH2
Protocol: (§1) The inhibitory activity of compounds at the different human SH2 domains was determined in vitro using SH2 domains expressed as fusion proteins in E. coli. The SH2 domains used herein were the human forms of the src SH2 domain, Grb2 SH2 domain, lck SH2 domain, fyn SH2 domain, SH-PTP2 SH2 domain, p85 SH2 domain and hcp SH2 domain. The fusion proteins containing the src, lck and hcp SH2 domains were expressed as the general sequence: DET1-DET2-spacer-ek-SH2, where DETI, DET2, spacer, ek and SH2 are as described below. […] Monoclonal antibodies to various epitopes of HIV-1 gp120 (or gp160) are known in the art, see, for example U.S. Patent 5,166,050. One preferred example is monoclonal antibody 178.1 (see, […] et al., J. Immunol., 143:1832-1836 (1989)), which was prepared by immunization of mice with a yeast-expressed HIV-1 gp160 molecule from strain BH10 (Ratner et al., Nature, 313:277-284 (1985)). This tag was used for detection of expression (by Western blot), for purification of the protein (by affinity chromatography), and for configuring assays in which the fusion protein was captured or immobilized using the 178.1 antibody. DET2 is a hexahistidine sequence tag (SEQ ID NO: 2) which binds to nickel-containing resins and was used for purification purposes. Spacer (SEQ ID NO: 3) was utilized to design a BamH1 restriction site at the indicated position of the construct. The term -[…] to a recognition sequence (SEQ ID NO: 4) for the enterokinase protease which provides for the optional removal of the tags from the SH2 domain, thus producing an SH2 domain that contains no extraneous amino acids. SH2 domains which contain no extraneous amino acids are preferable to tagged protein for crystallography studies. SH2 refers to the SH2 domains of different proteins. Cloning, expression and purification of human src SH2 domain containing tags and an enterokinase proteolytic cleavage site (DET1-DET2-spacer-ek-src SH2). A DNA sequence encoding protein ek-src SH2 was PCR amplified from a cDNA clone containing the human src gene (c-src SH2 DNA sequence identical to that described in […]. and Hanafusa, H, 1983 Cell 32:881-890) using the following primers: [formula] The PCR product was digested with BamHI and XbaI, followed by isolation of the digested fragment on an agarose gel. […] In that vector, the BamHI site is located between the coding regions for DET2 and SH2, and the XbaI site is located after the 3' end of the SH2 coding region. The ligation reaction was used to transform E. coli M[…]^+. […] Cells were lysed at neutral pH by sonication in the […] of lysozyme. […] After washing the column with equilibration buffer (Tris buffer pH 8 containing 0.5 M NaCl) and the same buffer containing 15 mM imidazole, the protein was eluted in highly purified form with 25 mM imidazole in equilibration buffer. […] The binding assays for the SH2 domains and pY peptides were performed in an ELISA-based 96 well plate assay. In Millipore 96 well filter plates, hydrophilic Durapore® (pore size 0.65um Cat. No. MADVN6550), was added 2 ul (50% suspension) of Protein-G Sepharose (available from Pharmacia of N.J. Cat. […] The volume was brought to 100 ul with TBS-T (tris buffered saline plus 0.05% tween-20), incubated and shaken at room trmperature for 1 hr. then washed 1x with TBS-T (4°C). 90 ul of TBS-T were then added to each well. […] The assay plates were incubated until equilibrium binding was attained (3 hr at 4°C with shaking). […] The A490 of each ELISA plate was then determined. […]

[2] = tested on: osteoclast mediated bone resorption; test: fetal rat long bone (FRLB) assay, 45calcium release; type: cell-based, Sprague Dawley rats; settings: inhibition of 45calcium release from fetal rat radii and ulnae, 48 hours culture with compound, n=4
Protocol: 4-[4-(4-Methylbenzoyl)benzoyl]phenylacetaldehyde (Compound 4) was tested for its potency to inhibit osteoclast mediated bone resorption in the fetal rat long bone (FRLB) assay as described in Raisz LG (1965) J Clin Invest 44: 103-116, Stern PH et al., (1979) Skeletal Research: An experimental Approach. New York:Academic Press, 21-59 and Votta BJ et al., (1994) Bone 15:533-538).
To perform the experiment timed-pregnant Sprague Dawley rats (Taconic Farms, Germantown, NY) were injected subcutaneously with 200 µCi of ^45CaCl2 on day 18 of gestation, housed overnight, then anesthetized with Innovar-Vet (Pittman-Moore, Mundelein, IL) and sacrificed by cervical dislocation. Fetuses were removed aseptically and radii and ulnae were dissected free of surrounding soft tissue and cartilaginous ends. The bones were cultured 18-24 hours in BGJb medium (Sigma) containing 1 mg/ml bovine serum albumin, then transferred to fresh medium and cultured for an additional 48 hours in the absence or presence of Compound 4. ^45Calcium released into the medium and total calcium in the bones were measured by liquid scintillation spectrometry. Data were expressed as the % ^45calcium released from treated bones as compared to corresponding control bones. Statistical differences were assessed by employing a one-way analysis of variance for non-paired samples. Data are presented as mean ± s.e.m., n=4. […]

human src SH2 domain [3] = test: SH2 domain / pY peptide binding assay (ELISA-based, 96 well plate), src SH2; settings: selectivity for src SH2 versus the other SH2 domains of Tables I and II
Protocol: as §1

human src SH2 domain (Homo sapiens, UniProt P12931), sequence (P12931 151-248): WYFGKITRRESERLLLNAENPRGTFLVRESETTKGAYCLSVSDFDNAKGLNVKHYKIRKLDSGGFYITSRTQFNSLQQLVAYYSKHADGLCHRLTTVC

**Q.** For `N[C@@H](Cc1cc(Br)c(Oc2ccc(O)c(Cc3ccc(O)nn3)c2)c(Br)c1)C(=O)O` [Compound 2, L-3,5-Dibromo-3'-(6-oxo-3(1H)-pyridazinylmethyl)-thyronine], which IC50 (human src SH2 domain [1]; read-out: Src (IC50); cloned human SH2 domain fusion protein; 0.1 uM biotinylated pY peptide; Table I) is on record?
**A.** Its IC50 is over 300 µM.

**Q.** And the Ki (human src SH2 domain [1]; read-out: Src (Ki); Ki calculated from IC50 by the expanded equation; Table II)?
**A.** Its Ki is over 1000 µM.

**Q.** Which IC50 [2] does the source give for `Cc1ccc(C(=O)c2ccc(C(=O)c3ccc(CC=O)cc3)cc2)cc1` [Compound 4, 4-[4-(4-Methylbenzoyl)benzoyl]phenylacetaldehyde] here?
**A.** The IC50 was 19 µM.

**Q.** Which Ki (human src SH2 domain [1]; Ki calculated from IC50 by the expanded equation; Table II; read-out: Src (Ki)) does the source give for `CCCCCCNC(=O)[C@H]1CC[C@H](CNC(=O)c2ccc([N+](=O)[O-])cc2)CC1` [Compound 7, 4-nitro-benzamido-trans-4-methyl-cyclohexyl-N-hexyl carboxamide] here?
**A.** The Ki was 20 µM.

**Q.** And the IC50 (human src SH2 domain [1]; cloned human SH2 domain fusion protein; 0.1 uM biotinylated pY peptide; Table I; read-out: Src (IC50))?
**A.** The IC50 was 7.4 µM.

**Q.** And the “binding affinity/inhibitory concentration at the src SH2 domain than at other SH2 domains” value (human src SH2 domain [3])?
**A.** Its value is “greater than fifty-fold higher”.
